Laboratory results published in patent US20020082264A1, “Medicaments for viral diseases” (priority 2000, published 2002).
Structures can show the parent of a compound that is named as a salt.

Test system: hepatitis B virus
Experiment: antiviral action on hepatitis B virus in HepG2.2.15 cells (HBV DNA dot-blot hybridization)
Assay type: cell-based
Details: 96 h, 2 x 4 days incubation, intra- or extracellular hepatitis B-specific DNA band reduced by 50% vs untreated sample
Description: The antiviral action of the compounds according to the invention on hepatitis B virus was investigated by methods based on those described by M. A. Sells et al., Proc. Natl. Acad. Sci. 84, 1005-1009 (1987) and B. E. Korba et al., Antiviral Research 19, 55-70 (1992).
The antiviral tests were carried out in 96-well microtitre plates. The first vertical row of the plate received only growth medium and HepG2.2.15 cells. It served as virus control.
Stock solutions of the test compounds (50 mM) were initially dissolved in DMSO, and further dilutions were prepared in the HepG2.2.15 growth medium. The compounds according to the invention were usually pipetted in a test concentration of 100 μM (lst test concentration) in each case into the second vertical test row of the microtitre plate and subsequently diluted in twofold steps 2^10 times in growth medium +2% by weight fetal calf serum (volume 25 μl).
Each well of the microtitre plate then contained 225 μl of HepG2.2.15 cell suspension (5×10^4 cells/ml) in growth medium +2% by weight of fetal calf serum. The test mixture was incubated at 37° C. and 5% CO2 (v/v) for 4 days.
The supernatant was then aspirated off and discarded, and the wells received 225 μl of freshly prepared growth medium. The compounds according to the invention were each added anew as 10-fold concentrated solution in a volume of 25 μl. The mixtures were incubated for a further 4 days.
The supematants/cells were then harvested and sucked by means of a vacuum onto 96-well dot-blot chambers covered with a nylon membrane (in accordance with the manufacturer's information).
After the supernatants or lysed cells had been transferred to the nylon membrane of the blot apparatus (see above), the intra- or extracellular supernatants of the HepG2.2.15 cells were denatured (1.5 M NaCl/0.5 N NaOH), neutralized (3 M NaCl/0.5 M Tris HCl, pH 7.5) and washed (2× SSC). The DNA was then baked onto the membrane by incubating the filters at 120° C. for 2-4 hours.
Detection of the viral DNA from the treated HepG2.2.15 cells on the nylon filters was easily carried out with non-radioactive, digoxigenin-labelled hepatitis B-specific DNA probes, each of which was labelled with digoxigenin, purified and employed for the hybridization in accordance with the manufacturer's information.
The prehybridization and hybridization took place in 5× SSC, 1× blocking reagent, 0.1% by weight N-lauroylsarcosine, 0.02% by weight SDS and 100 μg of herring sperm DNA. The prehybridization took place at 60° C. for 30minutes, and the specific hybridization with 20 to 40 ng/ml of the digoxigenized, denatured HBV-specific DNA took place at 60° C. for 14 hours. The filters were then washed.
The immunological detection of the digoxigenin-labelled DNA took place in accordance with the manufacturer's information:
The filters were washed and prehybridized in a blocking reagent (in accordance with the manufacturer's information). Hybridization was then carried out with an anti-DIG antibody coupled to alkaline phosphatase for 30 minutes. After a washing step, the substrate of alkaline phosphatase, CSPD, was added, incubated with the filters for 5 minutes, then packed in plastic film and incubated at 37° C. for a further 15 minutes. The chemiluminescence of the hepatitis B-specific DNA signals was visualized by exposing the filters to an X-ray film (incubation depending on signal strength: 10 minutes to 2 hours).
The half-maximum inhibitory concentration (IC50, 50% inhibitory concentration) was determined as the concentration at which the intra- or extracellular hepatitis B-specific band was reduced by the compound according to the invention by 50% compared with an untreated sample.

Structure (SMILES) | IC50 [µM]
Cc1cccc(-c2ccc3c(c2)OC2(CCCCC2)C(CCC#N)C3=O)c1 (stereo not drawn) [Example 76] | 0.002 to 0.12
N#CCCC1C(=O)c2ccc(-c3ccc(F)c(F)c3)cc2OC12CCCC2 (stereo not drawn) [Example 82] | 0.002 to 0.12
N#CCCC1C(=O)c2ccc(-c3cccc(C#N)c3)cc2OC12CCCC2 (stereo not drawn) [Example 97] | 0.002 to 0.12
N#CCCC1C(=O)c2ccc(-c3ccc(F)c(F)c3)cc2OC12CCC2 (stereo not drawn) [Example 99] | 0.002 to 0.12
N#CCCC1C(=O)c2ccc(-c3cccc([N+](=O)[O-])c3)cc2OC12CCCC2 (stereo not drawn) [Example 116] | 0.002 to 0.12
N#CCCC1C(=O)c2ccc(-c3cccc(N)c3)cc2OC12CCCCC2 (stereo not drawn) [Example 132, 3-(2-Cyanoethyl)-7-(3-aminophenyl)spiro[2H-1-benzopyran-2,1′-cyclohexan]-4(3H)-one Hydrochloride] | 0.002 to 0.12

Test system: not given
Experiment: not given
Details: not given

melting point [°C] | Structure (SMILES)
196 | O=C(O)CCC1C(=O)c2ccc(-c3ccccc3)cc2OC12CCCCC2 (stereo not drawn)
80 | N#CCCC1C(=O)c2cc(F)c(F)cc2OC12CCCCC2 (stereo not drawn)
145 to 149 | N#CCCC1(CCC#N)C(=O)c2ccc(Br)cc2OC12CCCCC2
190 to 195 | N#CCCC1(CCC#N)C(=O)c2ccc(-c3cccnc3)cc2OC12CCCCC2
61 to 63 | N#CCCC1C(=O)c2ccc(-c3ccc(F)cc3)cc2OC12CCCCC2 (stereo not drawn)

Structure (SMILES) | melting point [°C]
Cc1cccc(-c2ccc3c(c2)OC2(CCCCC2)C(CCC#N)C3=O)c1 (stereo not drawn) [Example 76] | 86 to 90
